Consider 20 compounds from patent publication US20230131899A1, “INHIBITORS OF MICROBIALLY INDUCED AMYLOID” (Axial Therapeutics, Inc., priority 2020, published 2023).

In general, inhibition refers to the drop in the measured response relative to a control, in per cent.

The experiment concerns the target T1, human α-synuclein (Homo sapiens, UniProt P37840).
T1 construct: the full-length gene for untagged human α-synuclein was inserted; made in house; host or cells: E. coli BL21(DE3), plasmid derived from pT7 or pET11a
Description: Cell-free Thioflavin T assay of α-synuclein aggregation (αSyn ThT Assay). The experiment is classed as biochemical. The following applies: αSyn 50 μM. A digest of the protocol: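 Untagged full-length human α-synuclein from E. coli, 50 μM, with 20-40 μM ThT, 1% DMSO, compound at 20-100 μM and a glass bead, 37° C. with shaking. Fluorescence (ex 438/em 495 nm) read hourly to 73 h. Compound-only background subtracted and values normalised to vehicle at 36-72 h or final timepoint, giving % inhibition.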

Setting [1] is: mean % inhibition of αSyn aggregation relative to DMSO control, compounds at 100 μM, read-out: αSyn ThT Assay % Inhibition.
The mark [2] stands for this setting: compounds at 100 μM, class symbol, read-out: αSyn ThT Assay % Inhibition (activity range).
The mark [3] stands for this setting: class symbol, compounds 100 μM, read-out: αSyn ThT Assay % inhibition, activity range.
[4] abbreviates: mean percent inhibition relative to DMSO control, compounds 100 μM, read-out: αSyn ThT Assay % inhibition.

The structures appear in SMILES notation. Read-outs that look alike come from different tables or passages of the source.

For `O=C(O)C1CN(C[C@@H](O)CO)S(=O)(=O)c2c(-c3cccc(C(F)(F)F)c3)c(Cc3cccc4ccccc34)cc(=O)n21` (mixture of isomers) [Compound 065b, 2-((R)-2,3-dihydroxypropyl)-8-(naphthalen-1-ylmethyl)-6-oxo-9-(3-(trifluoromethyl)phenyl)-3,4-dihydro-2H,6H-pyrido[1,2-e][1,2,5]thiadiazine-4-carboxylic acid 1,1-dioxide], the inhibition at 100 µM under setting [1] amounted to 9% and the inhibition at 100 µM under setting [2] was -10 to 10%.
Consider `O=C(O)C1CN(C[C@H](O)[C@@H](O)[C@H](O)[C@H](O)CO)S(=O)(=O)c2c(-c3cccc(C(F)(F)F)c3)c(Cc3cccc4ccccc34)cc(=O)n21` (mixture of isomers) [Compound 066, 8-(naphthalen-1-ylmethyl)-6-oxo-2-((2S,3R,4R,5R)-2,3,4,5,6-pentahydroxyhexyl)-9-(3-(trifluoromethyl)phenyl)-3,4-dihydro-2H,6H-pyrido[1,2-e][1,2,5]thiadiazine-4-carboxylic acid 1,1-dioxide], for which the inhibition at 100 µM reads like this: under setting [1], 13%; under setting [2], 11 to 30%.
Turning to `O=C(O)[C@@H]1CN(Cc2ccccc2)c2c(-c3cccc(C(F)(F)F)c3)c(Cc3cccc4ccccc34)c(Cl)c(=O)n21` (single isomer, unassigned) [Compound 004a], the inhibition at 100 µM was 31 to 60% under setting [3] and 42% under setting [4].
Regarding `O=C(O)[C@H]1CN(Cc2ccccc2)c2c(-c3cccc(C(F)(F)F)c3)c(Cc3cccc4ccccc34)c(Cl)c(=O)n21` (single isomer, unassigned) [Compound 004b], the inhibition at 100 µM reads like this: under setting [3], 31 to 60%; under setting [4], 44%.
With `CCCN1CC(C(=O)O)n2c(c(-c3cccc(C(F)(F)F)c3)c(Cc3cccc4ccccc34)cc2=O)S1(=O)=O` (single isomer, unassigned) [Compound 016b, 8-(naphthalen-1-ylmethyl)-6-oxo-2-propyl-9-(3-(trifluoromethyl)phenyl)-3,4-dihydro-2H,6H-pyrido[1,2-e][1,2,5]thiadiazine-4-carboxylic acid 1,1-dioxide], the inhibition at 100 µM is 95% under setting [1] and more than 60% under setting [2].
As to `Nc1c(Cc2cccc3ccccc23)c(-c2cccc(C(F)(F)F)c2)c2n(c1=O)C(C(=O)O)CS2` (single isomer, unassigned) [Compound 020b, 6-amino-7-(naphthalen-1-ylmethyl)-5-oxo-8-(3-(trifluoromethyl)phenyl)-2,3-dihydro-5H-thiazolo[3,2-a]pyridine-3-carboxylic acid], the inhibition at 100 µM was 25% under setting [1] and 11 to 30% under setting [2].
Turning to `CCCCCN1CC(C(=O)O)n2c(c(-c3cccc(C(F)(F)F)c3)c(Cc3cccc4ccccc34)cc2=O)S1(=O)=O` (single isomer, unassigned) [Compound 025a, 8-(naphthalen-1-ylmethyl)-6-oxo-2-pentyl-9-(3-(trifluoromethyl)phenyl)-3,4-dihydro-2H,6H-pyrido[1,2-e][1,2,5]thiadiazine-4-carboxylic acid 1,1-dioxide], the inhibition at 100 µM runs as follows: under setting [1], 50%; under setting [2], 31 to 60%.
On to `O=C(O)C1CN(Cc2ccccc2)c2c(-c3cccc(C(F)(F)F)c3)c(Cc3cccc4ccccc34)c(Br)c(=O)n21` (stereo not shown) [Compound 003, 1-benzyl-6-bromo-7-(naphthalen-1-ylmethyl)-5-oxo-8-(3-(trifluoromethyl)phenyl)-1,2,3,5-tetrahydroimidazo[1,2-a]pyridine-3-carboxylic acid], for which the inhibition at 100 µM was more than 60% under setting [3] and 76% under setting [4].
As for `O=C(O)C1CN(Cc2ccccc2)c2c(-c3cccc(C(F)(F)F)c3)c(Cc3cccc4ccccc34)c(Cl)c(=O)n21` (stereo not shown) [Compound 004, 1-benzyl-6-chloro-7-(naphthalen-1-ylmethyl)-5-oxo-8-(3-(trifluoromethyl)phenyl)-1,2,3,5-tetrahydroimidazo[1,2-a]pyridine-3-carboxylic acid], the inhibition at 100 µM reads like this: under setting [3], 31 to 60%; under setting [4], 55%.
As to `CNC(=O)C1CN(C)S(=O)(=O)c2c(-c3cccc(C(F)(F)F)c3)c(Cc3cccc4ccccc34)cc(=O)n21` (stereo not shown) [Compound 031, N,2-dimethyl-8-(naphthalen-1-ylmethyl)-6-oxo-9-(3-(trifluoromethyl)phenyl)-3,4-dihydro-2H,6H-pyrido[1,2-e][1,2,5]thiadiazine-4-carboxamide 1,1-dioxide], the inhibition at 100 µM is 18% under setting [1] and 11 to 30% under setting [2].
Taken in the same sequence, the figures for `CN(C)C(=O)C1CN(C)S(=O)(=O)c2c(-c3cccc(C(F)(F)F)c3)c(Cc3cccc4ccccc34)cc(=O)n21` (stereo not shown) [Compound 032, N,N-2-trimethyl-8-(naphthalen-1-ylmethyl)-6-oxo-9-(3-(trifluoromethyl)phenyl)-3,4-dihydro-2H,6H-pyrido[1,2-e][1,2,5]thiadiazine-4-carboxamide 1,1-dioxide] were 8% and -10 to 10%.
As for `Cn1c(=O)c2c(ncn2CCCCN2CC(C(=O)O)n3c(c(-c4cccc(C(F)(F)F)c4)c(Cc4cccc5ccccc45)cc3=O)S2(=O)=O)n(C)c1=O` (stereo not shown) [Compound 033, 2-(4-(1,3-dimethyl-2,6-dioxo-1,2,3,6-tetrahydro-7H-purin-7-yl)butyl)-8-(naphthalen-1-ylmethyl)-6-oxo-9-(3-(trifluoromethyl)phenyl)-3,4-dihydro-2H,6H-pyrido[1,2-e][1,2,5]thiadiazine-4-carboxylic acid 1,1-dioxide], the inhibition at 100 µM under setting [1] is 6% and the inhibition at 100 µM under setting [2] was -10 to 10%.
`Cn1c(=O)c2c(ncn2CCCCCN2CC(C(=O)O)n3c(c(-c4cccc(C(F)(F)F)c4)c(Cc4cccc5ccccc45)cc3=O)S2(=O)=O)n(C)c1=O` (stereo not shown) [Compound 034, 2-(5-(1,3-dimethyl-2,6-dioxo-1,2,3,6-tetrahydro-7H-purin-7-yl)pentyl)-8-(naphthalen-1-ylmethyl)-6-oxo-9-(3-(trifluoromethyl)phenyl)-3,4-dihydro-2H,6H-pyrido[1,2-e][1,2,5]thiadiazine-4-carboxylic acid 1,1-dioxide]: the inhibition at 100 µM was 5% under setting [1] and -10 to 10% under setting [2].
As to `Cn1c(=O)c2c(ncn2CCCCCCCN2CC(C(=O)O)n3c(c(-c4cccc(C(F)(F)F)c4)c(Cc4cccc5ccccc45)cc3=O)S2(=O)=O)n(C)c1=O` (stereo not shown) [Compound 036], the inhibition at 100 µM under setting [1] came to 16% and the inhibition at 100 µM under setting [2] was 11 to 30%.
Regarding `CNC(=O)CCCN1CC(C(=O)O)n2c(c(-c3cccc(C(F)(F)F)c3)c(Cc3cccc4ccccc34)cc2=O)S1(=O)=O` (stereo not shown) [Compound 037, 2-(4-(methylamino)-4-oxobutyl)-8-(naphthalen-1-ylmethyl)-6-oxo-9-(3-(trifluoromethyl)phenyl)-3,4-dihydro-2H,6H-pyrido[1,2-e][1,2,5]thiadiazine-4-carboxylic acid 1,1-dioxide], the inhibition at 100 µM under setting [1] turned out to be 36% and the inhibition at 100 µM under setting [2] was in the range of 31 to 60%.
As to `CNC(=O)CCCCN1CC(C(=O)O)n2c(c(-c3cccc(C(F)(F)F)c3)c(Cc3cccc4ccccc34)cc2=O)S1(=O)=O` (stereo not shown) [Compound 038, 2-(5-(methylamino)-5-oxopentyl)-8-(naphthalen-1-ylmethyl)-6-oxo-9-(3-(trifluoromethyl)phenyl)-3,4-dihydro-2H,6H-pyrido[1,2-e][1,2,5]thiadiazine-4-carboxylic acid 1,1-dioxide], the inhibition at 100 µM reads like this: under setting [1], 42%; under setting [2], 31 to 60%.
Take `Nc1c(Cc2ccc(N)c3ccccc23)c(-c2cccc(C(F)(F)F)c2)c2n(c1=O)C(C(=O)O)CNS2(=O)=O` (stereo not shown) [Compound 041]: the inhibition at 100 µM under setting [1] worked out at 25% and the inhibition at 100 µM under setting [2] lay within 11 to 30%.
As to `CC1(C(=O)O)CNS(=O)(=O)c2c(-c3cccc(C(F)(F)F)c3)c(Cc3cccc4ccccc34)cc(=O)n21` (stereo not shown) [Compound 042, 4-methyl-8-(naphthalen-1-ylmethyl)-6-oxo-9-(3-(trifluoromethyl)phenyl)-3,4-dihydro-2H,6H-pyrido[1,2-e][1,2,5]thiadiazine-4-carboxylic acid 1,1-dioxide], the inhibition at 100 µM by setting is: under setting [1], 84%; under setting [2], more than 60%.
For `Cn1c(=O)c2c(nc(CCCCN3CC(C(=O)O)n4c(c(-c5cccc(C(F)(F)F)c5)c(Cc5cccc6ccccc56)cc4=O)S3(=O)=O)n2C)n(C)c1=O` (stereo not shown) [Compound 044, 8-(naphthalen-1-ylmethyl)-6-oxo-9-(3-(trifluoromethyl)phenyl)-2-(4-(1,3,7-trimethyl-2,6-dioxo-2,3,6,7-tetrahydro-1H-purin-8-yl)butyl)-3,4-dihydro-2H,6H-pyrido[1,2-e][1,2,5]thiadiazine-4-carboxylic acid 1,1-dioxide], the inhibition at 100 µM under setting [1] was 10% and the inhibition at 100 µM under setting [2] was -10 to 10%.
For `Cn1c(=O)c2c(nc(CCCCCN3CC(C(=O)O)n4c(c(-c5cccc(C(F)(F)F)c5)c(Cc5cccc6ccccc56)cc4=O)S3(=O)=O)n2C)n(C)c1=O` (stereo not shown) [Compound 045, 8-(naphthalen-1-ylmethyl)-6-oxo-9-(3-(trifluoromethyl)phenyl)-2-(5-(1,3,7-trimethyl-2,6-dioxo-2,3,6,7-tetrahydro-1H-purin-8-yl)pentyl)-3,4-dihydro-2H,6H-pyrido[1,2-e][1,2,5]thiadiazine-4-carboxylic acid 1,1-dioxide], the inhibition at 100 µM was 15% under setting [1] and 11 to 30% under setting [2].
